This is an account of results in patent publication US20170196859A1, “PHARMACEUTICAL COMPOSITION COMPRISING PYRAZINE CARBOXAMIDE COMPOUND AS ACTIVE INGREDIENT” (Astellas Pharma Inc., priority 2014, published 2017).

In general, IC50 refers to the point on the concentration scale where inhibition reaches its midpoint.

The subject of assay [1] is human mantle cell lymphoma cell line Rec-1 cells. As to the kind of experiment: Proliferation inhibition, Rec-1 cells (CellTiter-Glo). It counts as cell-based. The following applies: Rec1, 72 h, 3 days culture. The procedure: Rec-1 is a cell line originated from human mantle cell lymphoma, a kind of B-cell malignant neoplasm, and the BTK expression and phosphorylation have been confirmed (Cell Oncol. 2011; 34:141-153). The human mantle cell lymphoma cell line Rec-1 cells (American Type Culture Collection, CRL-3004) cultured in RPMI1640 medium (Sigma) containing 10% bovine serum were seeded into 96 well plates. On the next day, DMSO solutions of the test compound B at final concentrations from 1 nM to 10 μM or only DMSO (DMSO group) were added thereto to culture the cells at 37° C. in 5% CO2 for 3 days. Thereafter, the cell number was measured using a cell counting reagent (CellTiter-Glo (registered trademark) Luminescent Cell Viability Assay (Promega)). The cell proliferation inhibition rate was calculated as the measured value in the DMSO group set as 0% inhibition and the measured value in the well only with the medium on which the cells have not been seeded set as 100% inhibition.
For orientation: In ATP-based viability assays light output follows the ATP content of the culture.

A further assay addresses T1, JAK3 kinase (Homo sapiens, UniProt P52333).
T1 construct: purchased Carna Bioscience QSS Assist JAK3_MSA kit
T1 sequence (P52333 1-1124): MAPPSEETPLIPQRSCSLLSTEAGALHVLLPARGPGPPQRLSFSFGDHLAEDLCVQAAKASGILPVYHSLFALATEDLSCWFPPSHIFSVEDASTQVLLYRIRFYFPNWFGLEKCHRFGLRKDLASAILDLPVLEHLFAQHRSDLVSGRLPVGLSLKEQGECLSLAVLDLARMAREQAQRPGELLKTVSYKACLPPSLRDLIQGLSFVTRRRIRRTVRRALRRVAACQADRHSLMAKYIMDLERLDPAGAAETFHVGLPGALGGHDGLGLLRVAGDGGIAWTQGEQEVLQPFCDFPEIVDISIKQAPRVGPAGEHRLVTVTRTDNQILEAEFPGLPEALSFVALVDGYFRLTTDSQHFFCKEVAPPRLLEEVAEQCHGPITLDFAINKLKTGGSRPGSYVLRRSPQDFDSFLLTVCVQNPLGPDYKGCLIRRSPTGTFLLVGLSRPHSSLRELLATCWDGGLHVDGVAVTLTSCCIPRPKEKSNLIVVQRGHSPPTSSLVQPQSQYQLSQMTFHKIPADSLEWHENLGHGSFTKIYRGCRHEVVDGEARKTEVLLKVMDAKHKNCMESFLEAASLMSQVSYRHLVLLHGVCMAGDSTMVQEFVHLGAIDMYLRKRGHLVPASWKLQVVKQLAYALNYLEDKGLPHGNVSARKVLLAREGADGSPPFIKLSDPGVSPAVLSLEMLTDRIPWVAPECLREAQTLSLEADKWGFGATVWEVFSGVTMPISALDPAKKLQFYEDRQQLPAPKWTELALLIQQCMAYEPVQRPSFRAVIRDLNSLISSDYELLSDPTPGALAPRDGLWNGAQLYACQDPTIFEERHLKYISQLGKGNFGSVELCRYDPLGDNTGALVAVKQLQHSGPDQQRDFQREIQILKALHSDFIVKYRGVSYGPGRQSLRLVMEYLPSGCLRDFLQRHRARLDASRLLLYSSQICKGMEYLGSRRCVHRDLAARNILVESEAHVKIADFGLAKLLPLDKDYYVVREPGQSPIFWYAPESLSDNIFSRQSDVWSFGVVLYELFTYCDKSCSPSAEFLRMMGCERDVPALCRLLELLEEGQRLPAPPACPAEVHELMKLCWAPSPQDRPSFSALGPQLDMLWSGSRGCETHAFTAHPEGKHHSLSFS
As to the kind of experiment: JAK3 kinase inhibitory activity (QSS Assist JAK3_MSA kit). It counts as biochemical. The following applies: 30 min preincubation, ATP 1 mM. How it is done: The JAK3 kinase inhibitory activity was evaluated using QSS Assist JAK3_MSA kit (Carna Bioscience).
The test compound B was dissolved in dimethyl sulfoxide (DMSO) to prepare a solution at a 100-fold concentration as compared to the test concentration. The solution was also 25-fold diluted with an appurtenant assay buffer to obtain a test compound B solution. In addition, JAK3 kinase appurtenant to the kit was used for the reaction.
5 μL of the test compound B solution at a 4-fold concentration, prepared using the aforementioned assay buffer, and 10 μL of a JAK3 kinase solution at a 2-fold concentration were mixed within a well of a 384 well plate, and incubated at room temperature for 30 minutes. Continuously, 5 μL of a substrate peptide/ATP/MgCl2 solution at a 4-fold concentration was added thereto to perform the reaction at room temperature for 1 hour. The substrate peptide was used at a final concentration of 1 μM, ATP at a final concentration of 1 mM, and MgCl2 at a final concentration of 5 mM. Thereafter, 60 μL of an appurtenant termination buffer was added thereto to stop the reaction. The JAK3 kinase activity was calculated by quantifying a product conversion ratio obtained from the substrate peptide peak height and the product (phosphorylated substrate peptide) peak height with LabChip EZ Reader II (PerkinElmer). […]

In assay [2] the test system is human lymphoblastic leukemia cell line MOLT-4 cells. Nature of the assay: Proliferation inhibition, MOLT-4 cells (CellTiter-Glo). It counts as cell-based. The settings on record: MOLT-4, 96 h, 4 days culture. The procedure:
MOLT-4 is a cell lines originated from human lymphoblastic leukemia and the ITK expression has been confirmed (Mol. Pharmacol. 2012; 82:938-947). The human lymphoblastic leukemia cell line MOLT-4 cells (European Collection of Cell Cultures, 85011413) cultured in RPMI1640 medium (Sigma) containing 10% bovine serum were inoculated into 96 well plates. On the same day, DMSO solutions of the test compound B at final concentrations from 1 nM to 10 μM or only DMSO (DMSO group) were added thereto to culture the cells at 37° C. in 5% CO2 for 4 days. Thereafter, the cell number was measured using a cell counting reagent (CellTiter-Glo (registered trademark) Luminescent Cell Viability Assay (Promega)). The cell proliferation inhibition rate was calculated as the measured value in the DMSO group set as 0% inhibition and the measured value in the well only with the medium on which the cells have not been seeded set as 100% inhibition.

`C=CC(=O)N1CC[C@@H](Oc2nc(Nc3ccc(N4CCC(N5CCN(C)CC5)CC4)cc3)c(C(N)=O)nc2CC)C1` [test compound B, 5-{[(3R)-1-acryloylpyrrolidin-3-yl]oxy}-6-ethyl-3-({4-[4-(4-methylpiperazin-1-yl)piperidin-1-yl]phenyl}amino)pyrazine-2-carboxamide monomethanesulfonate]: the IC50 came to 68 nM in assay [1], 0.44 nM against JAK3 kinase and 410 nM in assay [2].
